Like-named read-outs stand apart in the source and are kept apart here.
Test: Tigecycline plasma PK and % F after intraduodenal (ID) injection in anesthetized rats
Type: in vivo, Sprague-Dawley Rats
Settings: female, Sprague-Dawley, rat, plasma
Procedure: Animals weighed approximately 250 g at the time of testing. Rats were fasted overnight (with water available), prior to dosing.
Intravenous (IV) doses were administered as a bolus injection into the left carotid […] at a dose volume of 1.6 mL/kg. Intraduodenal doses were administered as bolus injections into the duodenum at a dose volume of 1.2 mL/kg.
An additional study was conducted exploring the effect of formulation pH at constant CA and LLC concentrations (RA867).
Female rats were maintained in groups of 3 per polycarbonate (or equivalent) shoebox cage with fresh wood chip bedding at 20-22° C. under a 12 hour on/off light:dark cycle. […] After the rats went limp they were injected intraperitoneally (IP) with 0.1 mL ketamine/xylazine. The anesthetic state was maintained by IP injection of ketamine/xylazine on an as needed basis. Animal weights were determined post-anesthesia induction.
An indwelling catheter for blood sampling was inserted into the right carotid artery by exposing the trachea with Mayo scissors, clamping the bottom of the […] and tying off the top with surgical suture. The area between was nicked with small sharp scissors and Intramedic polyethylene tubing was inserted into the nicked area. The artery with the tubing was sealed with suture to prevent leakage. A 23-gauge Intramedic Luer Stub Adapter was inserted into the cannula and attached to a 3 way valve which was connected to a 3 cc syringe filled with 0.9% normal saline and a 1 cc syringe filled with 5 U/mL sodium heparin for blood sampling.
An intraduodenal injection was utilized to mimic oral delivery of an enterically coated capsule or tablet formulation. […] Mayo scissors were used to expose the duodenum and the site of administration was identified by measuring 5 cm from the junction of the stomach and the duodenum towards the jejunum. The measured site was identified by inserting a small piece of surgical suture underneath the site for injection. After the formulation was injected, the abdominal cavity was closed with surgical clips.
Blood samples were collected in tubes containing 20 μL 180 mM EDTA. The tubes were maintained on ice and then centrifuged at approximately 3000 rpm at 4° C. for 5 minutes. Plasma was harvested immediately after centrifugation of the samples and stored at −20° C. pending analysis.
Minocycline (VWR international) was used as an internal standard. Sample processing/clean-up of plasma samples was carried out offline by protein precipitation with acidified acetonitrile.
The HPLC system consisted of Shimadzu SIL-HTc HPLC system equipped with dual Shimadzu LC-10ADvp isopumps, a Shimadzu CTO-10ASvp column temperature controller and a Shimadzu SPD-10Avp variable wavelength detector. […] Mobile phase A consisted of 23 mM phosphate buffer pH 2.5 with 6 mM 1-octanesulfonic acid, while mobile phase B consisting of pure acetonitrile. […] The mobile phase flow rate was 1.2 mL/min. Detection was performed using the SPD-10Avp variable wavelength detector set at 350 nm, with a sensitivity of 0.001 aufs.
The samples were then centrifuged under refrigeration at 13 k rpm for 30 minutes. The supernatant was taken and the liquid was removed to dryness in a turbovap. The samples were then reconstituted in 55 μL 0.1M phosphate buffer, pH 3.8. Samples were maintained at 10° C. while on the autoinjector during sequence. The injection volume was 50 μL. The unknown concentration in rat plasma samples was determined by interpolation of the peak area ratios of analyte:internal standard versus the ratio of their nominal concentrations into the regression line obtained from calibration standards spiked in pooled rat plasma. No regression weighting was used for the calculations. […] The calibration curve covered the range of 0.05 μg/mL to 5.0 μg/mL.

[1] = […], RA869, ID, 400 mM CA/26 mM LLC
[2] = other: intraduodenal bolus injection, 4.8 mg/kg, ID, PBS, 4.8 mg/kg (RA851)
[3] = other: intraduodenal bolus injection, 4.8 mg/kg, pH 3.5, ID, 100 mM CA (pH 3.5), 26 mM LLC, 4.8 mg/kg (RA851)
[4] = other: intraduodenal bolus injection, 4.8 mg/kg, pH 3.5, ID, 400 mM CA (pH 3.5), 26 mM LLC, 4.8 mg/kg (RA851), parent Tigecycline peak only
[5] = other: intraduodenal bolus injection, 9 mg/kg, ID, PBS, 9.0 mg/kg (RA853), animal RA853-4 only
[6] = other: intraduodenal bolus injection, 9 mg/kg, pH 3.5, ID, 100 mM CA (pH 3.5), 26 mM LLC, 9.0 mg/kg (RA853)
[7] = other: intraduodenal bolus injection, 9 mg/kg, pH 3.5, ID, 400 mM CA (pH 3.5), 26 mM LLC, 9.0 mg/kg (RA853), parent Tigecycline peak only

Structure (SMILES): CN(C)c1cc(NC(=O)CNC(C)(C)C)c(O)c2c1C[C@H]1C[C@H]3[C@H](N(C)C)C(O)=C(C(N)=O)C(=O)[C@@]3(O)C(O)=C1C2=O [Tigecycline]
- Cmax ([…], RA869, ID, 26 mM LLC only, […], read-out: Cmax, mean): 105 ng/mL
- AUC(0-t) [1]: 222 ng·h/mL
- Tmax [1]: 15 min
- bioavailability ([…], RA869, ID, 400 mM CA/26 mM LLC, […], read-out: % F, mean): 21.6%
- Cmax ([…], RA869, ID, 400 mM CA/26 mM LLC, […], read-out: Cmax, mean): 246 ng/mL
- concentration at 0 min [2]: 0 ng/mL
- concentration at 10 min [2]: 31 ng/mL
- concentration at 20 min [2]: 31 ng/mL
- concentration at 30 min [2]: 33 ng/mL
- concentration at 60 min [2]: 0 ng/mL
- concentration at 120 min [2]: 53 ng/mL
- concentration at 240 min [2]: 66 ng/mL
- concentration at 0 min [3]: 0 ng/mL
- concentration at 10 min [3]: 710 ng/mL
- concentration at 20 min [3]: 672 ng/mL
- concentration at 30 min [3]: 601 ng/mL
- concentration at 60 min [3]: 398 ng/mL
- concentration at 120 min [3]: 306 ng/mL
- concentration at 0 min [4]: 0 ng/mL
- concentration at 10 min [4]: 920 ng/mL
- concentration at 20 min [4]: 788 ng/mL
- concentration at 30 min [4]: 618 ng/mL
- concentration at 60 min [4]: 455 ng/mL
- concentration at 120 min [4]: 345 ng/mL
- concentration at 240 min [4]: 386 ng/mL
- concentration at 0 min [5]: 0 ng/mL
- concentration at 10 min [5]: 0 ng/mL
- concentration at 20 min [5]: 0 ng/mL
- concentration at 30 min [5]: 391 ng/mL
- concentration at 60 min [5]: 440 ng/mL
- concentration at 120 min [5]: 129 ng/mL
- concentration at 0 min [6]: 0 ng/mL
- concentration at 10 min [6]: 1770 ng/mL
- concentration at 20 min [6]: 1980 ng/mL
- concentration at 30 min [6]: 1350 ng/mL
- concentration at 60 min [6]: 608 ng/mL
- concentration at 120 min [6]: 273 ng/mL
- concentration at 0 min [7]: 0 ng/mL
- concentration at 10 min [7]: 2490 ng/mL
- concentration at 20 min [7]: 2160 ng/mL
- concentration at 30 min [7]: 1760 ng/mL
- concentration at 60 min [7]: 1060 ng/mL
- concentration at 120 min [7]: 683 ng/mL
- bioavailability (other: intraduodenal bolus injection, pH 3.5, ID, 400 mM CA pH 3.5 and 26 mM LLC (RA851, RA853), read-out: absolute % F): ~22%
- bioavailability (other: intraduodenal injection, 4.8 mg/kg, ID, PBS, 4.8 mg/kg (RA851), relative to 0.64 mg/kg IV, read-out: % F, Mean): 1.6%
- bioavailability (other: intraduodenal injection, 4.8 mg/kg, pH 3.5, ID, 100 mM CA (pH 3.5), 26 mM LLC, 4.8 mg/kg (RA851), relative to 0.64 mg/kg IV, read-out: % F, Mean): 10.9%
- bioavailability (other: intraduodenal injection, 9 mg/kg, ID, PBS, 9.0 mg/kg (RA853), without animal RA853-6, relative to 12 mg/kg IV, read-out: % F, Mean): 2.8%
- Cmax (other: intraduodenal injection, 9 mg/kg, ID, PBS, 9.0 mg/kg (RA853), suspected injection site leakage, read-out: Cmax, one animal not included in the mean): 1110 ng/mL
- bioavailability (other: intraduodenal injection, 9 mg/kg, pH 3.5, ID, 100 mM CA (pH 3.5), 26 mM LLC, 9.0 mg/kg (RA853), relative to 12 mg/kg IV, read-out: % F, Mean): 11.4%
- bioavailability (other: intraduodenal injection, 9 mg/kg, pH 3.5, ID, 400 mM CA (pH 3.5), 26 mM LLC, 9.0 mg/kg (RA853), parent Tigecycline peak only, relative to 12 mg/kg IV, read-out: % F, Mean): 21.8%
- bioavailability (other: intraduodenal injection, […], RA869, ID, 26 mM LLC only, […], read-out: % F, mean): 9%
- bioavailability (other: intraduodenal injection, […], RA869, ID, 400 mM CA/26 mM LLC, […], read-out: % F, mean): ~22%
- bioavailability (other: intraduodenal injection, pH 3.5, ID, 100 mM CA pH 3.5 and 26 mM LLC (RA851, RA853), read-out: absolute % F): ~11%
